Test results: PMC10905675, “INX-315, a Selective CDK2 Inhibitor, Induces Cell Cycle Arrest and Senescence in Solid Tumors” (Cancer Discovery, 2023)

Columns and labels:
[1] = tested on: CDK4/6-resistant breast cancer cells; assay: Cell number dose-response (discussion summary); type: cell-based; conditions: addition of INX-315 to CDK4/6-resistant cells
Procedure: An exception to this is MCF7PDRCl5-1 cells which were first cultured for 5 days without palbociclib then plated as described. MCF7PDRCl5-1 cells were treated with either a dose curve of the indicated CDK4/6i or a dose curve of INX-315 + 1 µmol/L of the indicated CDK4/6i. Cell viability was determined using the CellTiter-Glo assay (Promega, G9241) following manufacturer's instructions. Plates were processed on either BioTek Synergy2 multi-mode (Agilent) or ClarioSTAR (BMG Labtech) plate readers. T47D and MCF7 cells were seeded into […] plates using BioTek 406 (Aglient) and treated with a ten-point dose concentration from 10 µmol/L to 0.3 nmol/L of INX-315 for 2× doubling times. Plates were fixed with 4% PFA and stained with Rhodamine-Phalloidin (Bio-Trend, 00027) and DAPI (5 mg/mL, Invitrogen, catalog no. D1306). Plates were imaged using CellInsight CX7 LZR and DAPI-positive cells were counted using Thermo Fisher Scientific HCS Studio Cell Analysis Software.

[2] = tested on: CDK3/cyclin E1, CDK5 (inactive), CDK5/p25, CDK5/p35, CSF1R, MAPK15/ERK7, NTRK/TRKC, TYK2; assay: SelectScreen primary screen; type: biochemical; conditions: 100 nmol/L INX-315
Source text: (§1) INX-315 was first evaluated in the SelectScreen Biochemical Kinase Profiling at Thermo Fisher Scientific (Madison, WI). The primary screen consisted of INX-315 dosed at a single concentration of 100 nmol/L in 1% DMSO across each platform within the SelectScreen array of assays, LanthaScreen Eu Kinase Binding Assay; AdaptaScreen; and Z'LyteScreen using preestablished conditions at Thermo Fisher Scientific as shown in Supplementary Table S2. […] The follow-up screen consisted of 10-point dose–response curves for INX-315 from 1 µmol/L to 0.0495 nmol/L.

CDK2/cyclin A/A1/E1/O = assay: SelectScreen primary screen; type: biochemical; conditions: 100 nmol/L INX-315
Source text: as §1

MAP3K10 (MLK2) = molecular target: T1, MAP3K10 (MLK2) (Homo sapiens, UniProt Q02779); assay: SelectScreen LanthaScreen Binding; conditions: INX-0315 at 100nM
T1 construct: purchased Thermo Fisher Scientific SelectScreen (plus Nanosyn / Reaction Biology for CDK/cyclin lines)
Method in brief: (§2)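 Both platform types ran at predefined settings. Inhibitor was applied first at 100 nmol/L (1% DMSO), later in ten-point titrations spanning 1 µmol/L to 0.0495 nmol/L.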

ABL1 M351T = molecular target: T2, ABL1 M351T (Homo sapiens, UniProt P00519, M351T); assay: SelectScreen LanthaScreen Binding; conditions: INX-0315 at 100nM
T2 construct: purchased Thermo Fisher Scientific SelectScreen (plus Nanosyn / Reaction Biology for CDK/cyclin lines)
Method in brief: as §2

[3] = molecular target: T3, MAP2K1 (MEK1) S218D S222D (Homo sapiens, UniProt Q02750, S218D/S222D); assay: SelectScreen LanthaScreen Binding; conditions: INX-0315 at 100nM
T3 construct: purchased Thermo Fisher Scientific SelectScreen (plus Nanosyn / Reaction Biology for CDK/cyclin lines)
Method in brief: as §2

MYO3A (MYO3 alpha) = molecular target: T4, MYO3A (MYO3 alpha) (Homo sapiens, UniProt Q8NEV4); assay: SelectScreen LanthaScreen Binding; conditions: INX-0315 at 100nM
T4 construct: purchased Thermo Fisher Scientific SelectScreen (plus Nanosyn / Reaction Biology for CDK/cyclin lines)
Method in brief: as §2

NLK = molecular target: T5, NLK (Homo sapiens, UniProt Q9UBE8); assay: SelectScreen LanthaScreen Binding; conditions: INX-0315 at 100nM
T5 construct: purchased Thermo Fisher Scientific SelectScreen (plus Nanosyn / Reaction Biology for CDK/cyclin lines)
Method in brief: as §2

MYLK4 = molecular target: T6, MYLK4 (Homo sapiens, UniProt Q86YV6); assay: SelectScreen LanthaScreen Binding; conditions: INX-0315 at 100nM
T6 construct: purchased Thermo Fisher Scientific SelectScreen (plus Nanosyn / Reaction Biology for CDK/cyclin lines)
Method in brief: as §2

DDR2 = molecular target: T7, DDR2 (Homo sapiens, UniProt Q16832); assay: SelectScreen LanthaScreen Binding; conditions: INX-0315 at 100nM
T7 construct: purchased Thermo Fisher Scientific SelectScreen (plus Nanosyn / Reaction Biology for CDK/cyclin lines)
Method in brief: as §2

ULK2 = molecular target: T8, ULK2 (Homo sapiens, UniProt Q8IYT8); assay: SelectScreen LanthaScreen Binding; conditions: INX-0315 at 100nM
T8 construct: purchased Thermo Fisher Scientific SelectScreen (plus Nanosyn / Reaction Biology for CDK/cyclin lines)
Method in brief: as §2

BRAF = molecular target: T9, BRAF (Homo sapiens, UniProt P15056); assay: SelectScreen LanthaScreen Binding; conditions: INX-0315 at 100nM
T9 construct: purchased Thermo Fisher Scientific SelectScreen (plus Nanosyn / Reaction Biology for CDK/cyclin lines)
Method in brief: as §2

BMPR1A (ALK3) = molecular target: T10, BMPR1A (ALK3) (Homo sapiens, UniProt P36894); assay: SelectScreen LanthaScreen Binding; conditions: INX-0315 at 100nM
T10 construct: purchased Thermo Fisher Scientific SelectScreen (plus Nanosyn / Reaction Biology for CDK/cyclin lines)
Method in brief: as §2

CDK2/cyclin O = molecular target: T11, CDK2/cyclin O (Homo sapiens, UniProt P24941); assay: SelectScreen LanthaScreen Binding; conditions: INX-0315 at 100nM
T11 construct: purchased Thermo Fisher Scientific SelectScreen (plus Nanosyn / Reaction Biology for CDK/cyclin lines)
Method in brief: as §2

ADCK3 = molecular target: T12, ADCK3 (Homo sapiens, UniProt Q8NI60); assay: SelectScreen LanthaScreen Binding; conditions: INX-0315 at 100nM
T12 construct: purchased Thermo Fisher Scientific SelectScreen (plus Nanosyn / Reaction Biology for CDK/cyclin lines)
Method in brief: as §2

TNK2 (ACK) = molecular target: T13, TNK2 (ACK) (Homo sapiens, UniProt Q07912); assay: SelectScreen LanthaScreen Binding; conditions: INX-0315 at 100nM
T13 construct: purchased Thermo Fisher Scientific SelectScreen (plus Nanosyn / Reaction Biology for CDK/cyclin lines)
Method in brief: as §2

STK17A (DRAK1) = molecular target: T14, STK17A (DRAK1) (Homo sapiens, UniProt Q9UEE5); assay: SelectScreen LanthaScreen Binding; conditions: INX-0315 at 100nM
T14 construct: purchased Thermo Fisher Scientific SelectScreen (plus Nanosyn / Reaction Biology for CDK/cyclin lines)
Method in brief: as §2

BRSK2 = molecular target: T15, BRSK2 (Homo sapiens, UniProt Q8IWQ3); assay: SelectScreen LanthaScreen Binding; conditions: INX-0315 at 100nM
T15 construct: purchased Thermo Fisher Scientific SelectScreen (plus Nanosyn / Reaction Biology for CDK/cyclin lines)
Method in brief: as §2

TTK = molecular target: T16, TTK (Homo sapiens, UniProt P33981); assay: SelectScreen LanthaScreen Binding; conditions: INX-0315 at 100nM
T16 construct: purchased Thermo Fisher Scientific SelectScreen (plus Nanosyn / Reaction Biology for CDK/cyclin lines)
Method in brief: as §2

SLK = molecular target: T17, SLK (Homo sapiens, UniProt Q9H2G2); assay: SelectScreen LanthaScreen Binding; conditions: INX-0315 at 100nM
T17 construct: purchased Thermo Fisher Scientific SelectScreen (plus Nanosyn / Reaction Biology for CDK/cyclin lines)
Method in brief: as §2

OVCAR3 cells = assay: Cell cycle flow cytometry; type: cell-based; conditions: 24 hours, as little as 30–100 nmol/L

T1 sequence (Q02779 whole entry): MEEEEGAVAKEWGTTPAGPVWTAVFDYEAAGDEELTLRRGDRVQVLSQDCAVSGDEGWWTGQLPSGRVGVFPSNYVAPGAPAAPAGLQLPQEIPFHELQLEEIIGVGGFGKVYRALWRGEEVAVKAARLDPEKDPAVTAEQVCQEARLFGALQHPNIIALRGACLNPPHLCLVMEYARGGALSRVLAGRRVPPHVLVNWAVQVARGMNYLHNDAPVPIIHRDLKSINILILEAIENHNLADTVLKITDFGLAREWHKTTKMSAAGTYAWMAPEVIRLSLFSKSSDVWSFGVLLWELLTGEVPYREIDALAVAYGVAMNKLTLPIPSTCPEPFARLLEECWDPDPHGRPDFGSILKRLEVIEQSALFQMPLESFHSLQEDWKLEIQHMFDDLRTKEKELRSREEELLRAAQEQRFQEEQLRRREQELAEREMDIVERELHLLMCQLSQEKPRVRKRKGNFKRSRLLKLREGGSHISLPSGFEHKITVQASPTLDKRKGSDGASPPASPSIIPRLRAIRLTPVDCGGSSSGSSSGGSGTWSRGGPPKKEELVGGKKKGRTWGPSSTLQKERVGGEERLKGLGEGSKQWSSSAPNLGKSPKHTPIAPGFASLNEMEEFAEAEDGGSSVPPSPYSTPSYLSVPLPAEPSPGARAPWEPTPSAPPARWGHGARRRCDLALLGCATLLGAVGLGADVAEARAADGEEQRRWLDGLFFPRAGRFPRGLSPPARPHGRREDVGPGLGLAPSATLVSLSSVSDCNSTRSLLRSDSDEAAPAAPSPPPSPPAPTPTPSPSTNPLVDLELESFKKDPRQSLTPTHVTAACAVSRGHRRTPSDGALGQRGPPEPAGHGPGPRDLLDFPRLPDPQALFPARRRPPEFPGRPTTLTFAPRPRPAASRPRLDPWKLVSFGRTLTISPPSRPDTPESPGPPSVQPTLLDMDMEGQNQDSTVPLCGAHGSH
T6 sequence (Q86YV6 whole entry): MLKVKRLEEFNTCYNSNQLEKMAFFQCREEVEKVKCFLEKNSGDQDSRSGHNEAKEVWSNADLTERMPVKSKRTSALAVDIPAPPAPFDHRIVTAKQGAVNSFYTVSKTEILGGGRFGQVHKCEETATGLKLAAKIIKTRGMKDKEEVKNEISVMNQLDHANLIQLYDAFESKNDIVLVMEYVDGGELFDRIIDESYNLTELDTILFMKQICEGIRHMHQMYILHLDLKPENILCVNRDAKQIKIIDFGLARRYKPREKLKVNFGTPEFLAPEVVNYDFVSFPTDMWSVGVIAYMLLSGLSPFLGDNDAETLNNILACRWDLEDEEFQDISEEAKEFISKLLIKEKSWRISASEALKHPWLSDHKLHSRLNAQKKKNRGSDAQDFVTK
T9 sequence (P15056 whole entry): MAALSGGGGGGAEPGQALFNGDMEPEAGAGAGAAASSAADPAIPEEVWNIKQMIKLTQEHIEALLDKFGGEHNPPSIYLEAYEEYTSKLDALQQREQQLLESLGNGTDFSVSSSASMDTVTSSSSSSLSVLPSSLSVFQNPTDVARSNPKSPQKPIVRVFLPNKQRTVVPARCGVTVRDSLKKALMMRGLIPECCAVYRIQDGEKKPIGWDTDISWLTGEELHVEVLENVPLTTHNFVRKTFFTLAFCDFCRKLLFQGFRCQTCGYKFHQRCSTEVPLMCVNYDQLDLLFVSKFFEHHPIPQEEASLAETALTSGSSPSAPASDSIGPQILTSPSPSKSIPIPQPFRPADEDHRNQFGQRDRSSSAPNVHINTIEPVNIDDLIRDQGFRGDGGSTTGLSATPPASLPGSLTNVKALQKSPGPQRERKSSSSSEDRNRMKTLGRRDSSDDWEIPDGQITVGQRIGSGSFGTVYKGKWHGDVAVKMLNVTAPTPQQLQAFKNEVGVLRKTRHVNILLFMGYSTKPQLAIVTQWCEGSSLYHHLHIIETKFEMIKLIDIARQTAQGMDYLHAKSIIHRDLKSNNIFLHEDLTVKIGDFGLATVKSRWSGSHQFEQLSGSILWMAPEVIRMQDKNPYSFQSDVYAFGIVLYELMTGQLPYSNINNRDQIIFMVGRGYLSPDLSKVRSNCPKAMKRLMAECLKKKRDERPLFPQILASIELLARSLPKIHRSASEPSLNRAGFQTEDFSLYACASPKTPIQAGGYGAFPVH
T3 sequence (Q02750 whole entry S218D/S222D): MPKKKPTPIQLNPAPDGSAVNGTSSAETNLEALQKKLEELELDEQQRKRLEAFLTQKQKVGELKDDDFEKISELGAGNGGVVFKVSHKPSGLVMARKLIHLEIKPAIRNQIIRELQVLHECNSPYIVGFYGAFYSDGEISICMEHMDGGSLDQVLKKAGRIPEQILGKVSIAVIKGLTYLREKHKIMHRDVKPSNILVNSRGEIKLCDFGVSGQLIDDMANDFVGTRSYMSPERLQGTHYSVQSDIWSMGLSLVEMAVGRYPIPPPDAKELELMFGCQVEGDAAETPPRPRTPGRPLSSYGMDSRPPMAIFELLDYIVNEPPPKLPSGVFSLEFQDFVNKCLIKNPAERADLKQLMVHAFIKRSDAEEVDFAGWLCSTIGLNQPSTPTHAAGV
T10 sequence (P36894 24-532): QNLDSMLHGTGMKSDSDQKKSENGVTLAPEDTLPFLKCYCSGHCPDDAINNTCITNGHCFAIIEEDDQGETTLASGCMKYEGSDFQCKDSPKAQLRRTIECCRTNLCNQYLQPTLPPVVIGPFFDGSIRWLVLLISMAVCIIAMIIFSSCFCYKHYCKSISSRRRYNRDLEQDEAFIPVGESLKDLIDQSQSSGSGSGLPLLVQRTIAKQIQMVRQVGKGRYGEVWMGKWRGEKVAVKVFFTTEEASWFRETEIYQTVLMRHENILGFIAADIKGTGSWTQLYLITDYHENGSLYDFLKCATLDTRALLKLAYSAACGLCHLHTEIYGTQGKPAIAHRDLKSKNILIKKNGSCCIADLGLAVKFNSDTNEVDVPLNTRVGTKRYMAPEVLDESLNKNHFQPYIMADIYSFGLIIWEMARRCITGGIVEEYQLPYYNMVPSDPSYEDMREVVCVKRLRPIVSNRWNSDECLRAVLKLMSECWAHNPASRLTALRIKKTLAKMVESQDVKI
T7 sequence (Q16832 22-855): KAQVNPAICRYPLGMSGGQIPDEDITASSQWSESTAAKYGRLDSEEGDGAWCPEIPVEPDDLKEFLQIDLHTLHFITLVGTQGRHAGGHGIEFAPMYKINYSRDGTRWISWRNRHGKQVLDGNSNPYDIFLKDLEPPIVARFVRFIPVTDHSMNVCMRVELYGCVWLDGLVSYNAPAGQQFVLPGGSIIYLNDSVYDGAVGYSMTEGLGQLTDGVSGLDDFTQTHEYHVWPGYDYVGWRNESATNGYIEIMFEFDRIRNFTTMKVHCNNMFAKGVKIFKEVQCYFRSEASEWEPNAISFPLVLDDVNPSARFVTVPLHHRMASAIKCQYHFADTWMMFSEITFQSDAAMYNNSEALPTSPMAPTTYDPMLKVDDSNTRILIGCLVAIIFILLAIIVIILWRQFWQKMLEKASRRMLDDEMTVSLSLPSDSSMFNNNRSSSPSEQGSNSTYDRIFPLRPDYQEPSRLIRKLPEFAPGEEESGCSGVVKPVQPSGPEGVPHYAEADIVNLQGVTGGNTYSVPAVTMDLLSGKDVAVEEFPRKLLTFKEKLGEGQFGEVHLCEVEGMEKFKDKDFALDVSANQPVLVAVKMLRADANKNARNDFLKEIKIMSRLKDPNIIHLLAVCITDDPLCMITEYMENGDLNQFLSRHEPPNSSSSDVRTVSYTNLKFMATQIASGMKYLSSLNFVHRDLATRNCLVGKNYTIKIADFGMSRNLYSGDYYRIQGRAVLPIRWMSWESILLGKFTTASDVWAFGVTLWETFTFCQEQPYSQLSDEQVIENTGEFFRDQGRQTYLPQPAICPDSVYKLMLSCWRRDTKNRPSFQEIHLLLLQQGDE
T13 sequence (Q07912 whole entry): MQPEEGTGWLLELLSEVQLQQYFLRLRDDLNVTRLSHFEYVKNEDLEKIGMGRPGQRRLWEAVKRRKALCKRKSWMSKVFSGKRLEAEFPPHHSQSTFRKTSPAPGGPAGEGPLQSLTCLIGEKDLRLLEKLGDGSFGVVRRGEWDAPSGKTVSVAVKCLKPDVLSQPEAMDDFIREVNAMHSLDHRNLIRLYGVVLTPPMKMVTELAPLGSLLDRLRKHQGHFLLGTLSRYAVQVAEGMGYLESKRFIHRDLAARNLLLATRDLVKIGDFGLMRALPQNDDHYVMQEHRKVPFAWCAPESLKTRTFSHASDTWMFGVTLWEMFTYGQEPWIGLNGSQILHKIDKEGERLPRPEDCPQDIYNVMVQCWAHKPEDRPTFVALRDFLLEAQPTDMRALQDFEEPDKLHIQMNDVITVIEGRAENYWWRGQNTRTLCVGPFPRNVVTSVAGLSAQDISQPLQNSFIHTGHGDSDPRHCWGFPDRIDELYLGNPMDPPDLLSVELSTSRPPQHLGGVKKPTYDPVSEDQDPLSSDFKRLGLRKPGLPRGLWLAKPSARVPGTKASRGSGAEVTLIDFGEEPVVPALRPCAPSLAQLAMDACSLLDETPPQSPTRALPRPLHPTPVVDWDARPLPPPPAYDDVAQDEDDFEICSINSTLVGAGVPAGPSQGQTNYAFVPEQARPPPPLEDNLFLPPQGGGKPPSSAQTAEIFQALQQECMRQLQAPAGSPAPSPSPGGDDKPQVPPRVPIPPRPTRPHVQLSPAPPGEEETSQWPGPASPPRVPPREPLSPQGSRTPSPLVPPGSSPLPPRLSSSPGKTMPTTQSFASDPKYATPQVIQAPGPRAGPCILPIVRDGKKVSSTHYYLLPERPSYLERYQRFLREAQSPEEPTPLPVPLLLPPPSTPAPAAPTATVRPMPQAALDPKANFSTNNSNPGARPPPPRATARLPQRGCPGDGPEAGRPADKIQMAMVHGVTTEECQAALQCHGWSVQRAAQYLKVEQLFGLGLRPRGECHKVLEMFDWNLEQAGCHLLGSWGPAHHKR

With `NS(=O)(=O)c1ccc(Nc2ncc3cc4n(c3n2)C2(CCCCC2)C(=O)NN4)cc1` [INX-315] as the molecule, how does the IC50 [1] read?
The IC50 was under 25 nM.

What about the “inhibition of CDK3/cyclin E1, CDK5 (inactive), CDK5/p25, CDK5/p35, CSF1R, MAPK15/ERK7, NTRK/TRKC, TYK2” value [2] of the same molecule?
Its value is at least 80%.

What about the “inhibition of CDK2/cyclin A/A1/E1/O” value (CDK2/cyclin A/A1/E1/O) of the same molecule?
The value was at least 94%.

And the inhibition at 0.1 µM (MAP3K10 (MLK2))?
The inhibition at 0.1 µM was 8%.

What about the inhibition at 0.1 µM (ABL1 M351T) of the same molecule?
The inhibition at 0.1 µM was 13%.

What about the inhibition at 0.1 µM [3] of the same molecule?
The inhibition at 0.1 µM was 1%.

And the inhibition at 0.1 µM (MYO3A (MYO3 alpha))?
The inhibition at 0.1 µM was 6%.

And the inhibition at 0.1 µM (NLK)?
Its inhibition at 0.1 µM is 0%.

And the inhibition at 0.1 µM (MYLK4)?
The inhibition at 0.1 µM was 20%.

What about the inhibition at 0.1 µM (DDR2) of the same molecule?
Its inhibition at 0.1 µM is 18%.

And the inhibition at 0.1 µM (ULK2)?
Its inhibition at 0.1 µM is 3%.

And the inhibition at 0.1 µM (BRAF)?
The inhibition at 0.1 µM was -1%.

What about the inhibition at 0.1 µM (BMPR1A (ALK3)) of the same molecule?
Its inhibition at 0.1 µM is 8%.

And the inhibition at 0.1 µM (CDK2/cyclin O)?
Its inhibition at 0.1 µM is 98%.

What about the inhibition at 0.1 µM (ADCK3) of the same molecule?
Its inhibition at 0.1 µM is 49%.

And the inhibition at 0.1 µM (TNK2 (ACK))?
Its inhibition at 0.1 µM is 0%.

And the inhibition at 0.1 µM (STK17A (DRAK1))?
Its inhibition at 0.1 µM is 2%.

And the inhibition at 0.1 µM (BRSK2)?
The inhibition at 0.1 µM was 4%.

And the inhibition at 0.1 µM (TTK)?
Its inhibition at 0.1 µM is 49%.

What about the inhibition at 0.1 µM (SLK) of the same molecule?
Its inhibition at 0.1 µM is 22%.

What about the cell cycle effect (OVCAR3 cells) of the same molecule?
The cell cycle effect was “potent G1 arrest”.
